Assay results from publication PMC10305218, “Expression of β-Glucosidases from the Yak Rumen in Lactic Acid Bacteria: A Genetic Engineering Approach” (Microorganisms, 2023).

Test system: T1, Bgl
T1 construct: gene bglA; bglA-bglB fusion (usp45-bglA-usp45-bglB, pMG36e) secreted by L. lactis NZ9000; gene 2722 bp; printed about 75 kDa (less than the sum of both); supernatant / TCA-acetone precipitate
Assay: DNS reducing sugar assay, Michaelis-Menten / Lineweaver-Burk fit
Format: biochemical, Paenibacillus polymyxa
Settings: 50 °C, pH 7.0; bacterial supernatant
Source text: DNS reducing sugar assay, Michaelis-Menten / Lineweaver-Burk fit on Bgl

- Km: 34.8 µM
SMILES: OCc1ccccc1O[C@@H]1O[C@H](CO)[C@@H](O)[C@H](O)[C@H]1O [salicin]
